In paper PMC11173529, “Structure–Activity Relationship Studies in a Series of Xanthine Inhibitors of SLACK Potassium Channels” (Molecules, 2024):
Like-named read-outs stand apart in the source and are kept apart here. Each block holds one molecule with its values, some of them ahead of it.

Assays:
[1] = target: T1, WT hSLACK (Homo sapiens, UniProt Q5JUK3); test: Whole-cell automated patch-clamp (APC) in CHO cells stably expressing WT hSLACK; assay type: cell-based; conditions: for SLACK Imax: maximum inhibition at 30 µM test compound standardized to VU0606170 (set at 100%), WT hSLACK; for IC50: whole-cell APC, CHO cells stably expressing WT hSLACK, averages n ≥ 3, read-out: SLACK IC50
T1 construct: host or cells: CHO-K1
T1 sequence (Q5JUK3 1-1235 isoform Q5JUK3-3): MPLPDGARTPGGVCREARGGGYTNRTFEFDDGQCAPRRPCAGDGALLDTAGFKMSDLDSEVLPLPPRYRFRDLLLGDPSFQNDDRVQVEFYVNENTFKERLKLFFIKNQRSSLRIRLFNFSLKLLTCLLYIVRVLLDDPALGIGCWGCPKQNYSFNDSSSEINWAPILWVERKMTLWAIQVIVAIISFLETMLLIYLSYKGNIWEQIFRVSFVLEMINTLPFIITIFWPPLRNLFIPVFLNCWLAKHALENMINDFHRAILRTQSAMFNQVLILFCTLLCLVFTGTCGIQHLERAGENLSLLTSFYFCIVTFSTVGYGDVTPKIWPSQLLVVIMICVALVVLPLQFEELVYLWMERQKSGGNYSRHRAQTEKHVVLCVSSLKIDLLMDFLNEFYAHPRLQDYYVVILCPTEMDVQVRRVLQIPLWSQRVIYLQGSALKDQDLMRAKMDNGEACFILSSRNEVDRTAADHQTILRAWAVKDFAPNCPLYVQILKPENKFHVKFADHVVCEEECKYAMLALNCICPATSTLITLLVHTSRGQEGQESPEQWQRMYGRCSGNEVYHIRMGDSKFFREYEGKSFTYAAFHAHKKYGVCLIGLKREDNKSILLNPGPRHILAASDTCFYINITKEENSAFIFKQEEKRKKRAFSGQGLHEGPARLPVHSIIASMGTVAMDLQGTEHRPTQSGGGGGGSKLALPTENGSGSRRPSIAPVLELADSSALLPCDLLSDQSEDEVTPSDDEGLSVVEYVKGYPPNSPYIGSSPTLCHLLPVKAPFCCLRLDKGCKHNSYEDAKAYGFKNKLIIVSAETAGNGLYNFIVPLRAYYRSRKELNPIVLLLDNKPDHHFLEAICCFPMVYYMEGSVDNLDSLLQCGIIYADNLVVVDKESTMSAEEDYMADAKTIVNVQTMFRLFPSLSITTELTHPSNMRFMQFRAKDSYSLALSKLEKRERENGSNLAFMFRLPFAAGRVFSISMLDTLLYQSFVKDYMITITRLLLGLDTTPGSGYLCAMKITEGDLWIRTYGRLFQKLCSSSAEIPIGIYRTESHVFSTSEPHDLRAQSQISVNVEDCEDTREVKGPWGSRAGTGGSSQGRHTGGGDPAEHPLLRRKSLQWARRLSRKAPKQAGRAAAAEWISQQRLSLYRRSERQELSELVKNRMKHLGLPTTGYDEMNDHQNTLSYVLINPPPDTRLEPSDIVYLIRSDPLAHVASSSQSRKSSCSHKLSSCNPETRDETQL
Protocol: All new analogs were tested in our APC assay using CHO cells stably expressing WT SLACK using a concentration-response format with concentrations ranging from 0.125 to 30 μM in half-log steps and a minimum of three cells (replicates) per concentration series. […] Still, there were some notable results. For example, substitution at the 4-position was largely unfavorable regardless of the nature of the substituent (21, 24, 27, 30, and 33) apart from the 4-fluoro analog 18. […] As the trifluoromethyl group is similar in electronegativity to chlorine, but larger than both methyl and chlorine, perhaps the steric bulk of the trifluoromethyl is to blame for the poor potency of these analogs. With the exception of the fluoro (16–18) and cyano (28–30) analogs, substitution at the 3-position was favorable for SLACK activity, with 3-methoxy analog 32 standing out in this set.
Stably transfected monoclonal HEK293 cell lines expressing Slick, Maxi-K α1/β3, Maxi-K α1/β4, CaV3.2, GIRK 1/2, KV2.1, KV7.2, NaV1.7, and TASK-1 were generated as previously described. Stably transfected monoclonal HEK293 cell lines expressing hERG were generated as previously described. CHO-K1 cells expressing human Slack and disease-associated human Slack mutations, G288S and A934T, were generated by transfecting a PiggyBac TRE mammalian expression vector (VectorBuilder, Chicago, IL, USA) containing KCNT1. FuGENE 6 (Promega, Madison, WI, USA) transfection reagent and protocol, together with Opti-MEM (Thermo Fisher Scientific, Walkham, MA, USA), were utilized.
Automated patch-clamp recording was performed with a SyncroPatch 768 PE system (Nanion, Munich, Germany) as previously described. Whole-cell recordings were performed at room temperature. Cells were harvested by first washing with PBS without Mg^2+ or Ca^2+ (Gibco, Billings, MT, USA) to remove cell culture media, followed by dissociation with TryPLE (Gibco, Billings, MT, USA). Cells were then resuspended and diluted to 100,000 cells/mL in external solution. External solution contained 105 mM NaCl, 4 mM KCl, 1 mM MgCl2, 5 mM CaCl2, 10 mM HEPES, and 40 mM N-Methyl-D-glucamine chloride, titrated to pH of 7.4 and osmolarity of 300 mOsm/kg; internal solution contained 70 mM NaCl, 70 mM KF, 10 mM KCl, 5 mM EGTA, and 5 mM HEPES, titrated to a pH of 7.2 and osmolarity of 295 mOsm/kg.
The APC protocol was set as follows: Cells were held at a […] of −80 mV for 100 ms, then a ramp protocol was performed from −100 mV to 80 mV at 0.4 mV/ms, followed by holding the cell at −80 mV for another 100 ms, then steps were performed at −20 mV, 0 mV, +20 mV, +40 mV, and +60 mV for 100 ms of each step. Whole-cell currents were measured at 0 mV and normalized to current after external buffer addition. […] To obtain the concentration-response relationship graphs and IC50 values, we take the median value of the last 7 current amplitude values obtained for each set of data points collected for a given concentration at a particular step.

[2] = system: hERG (KV11.1) channels; design: method as in PMID 32408169; conditions: at 10 µM; cited from earlier work
[3] = system: WT SLACK; design: method as in PMID 32408169; conditions: whole-cell patch-clamp electrophysiology; read-out: IC50 versus WT SLACK; cited from earlier work
[4] = system: SLACK; design: method as in PMID 33859800; conditions: whole-cell patch-clamp electrophysiology; read-out: IC50 versus WT SLACK; cited from earlier work
[5] = system: Kcnt1^L/L mice; design: method as in PMID 36173683; conditions: mouse model using Kcnt1 L/L mice; cited from earlier work
[6] = system: GABAA Cl– channels; design: method as in PMID 33859800; conditions: binding displacement assay; cited from earlier work
[7] = system: WT SLACK; design: method as in earlier work; conditions: APC assay; read-out: IC50 versus WT SLACK; cited from earlier work
[8] = system: co-cultures of cortical neuronal and glial cells; design: method as in PMID 33143429; conditions: cited from earlier work
[9] = system: hERG channel; design: method as in PMID 33143429; conditions: Tl+-flux assay; cited from earlier work
[10] = system: WT SLACK; design: method as in PMID 33143429; conditions: whole-cell APC, HEK-293 cells; read-out: IC50 versus WT SLACK; cited from earlier work
[11] = system: WT SLACK; design: method as in PMID 37812884; conditions: whole-cell APC, CHO cells stably expressing WT SLACK; read-out: IC50 versus WT SLACK; cited from earlier work
[12] = system: A934T SLACK; design: method as in PMID 37812884; conditions: Tl+-flux assay; read-out: IC50 versus A934T SLACK; cited from earlier work
[13] = design: method as in PMID 37812884; conditions: cited from earlier work

Structure (SMILES): Cc1cccc(CC(=O)Nc2cnn(-c3cccc(C(=O)NCc4ccccc4-n4cncn4)c3)c2)c1 [Compound 1]
hERG (KV11.1) inhibition [2]: almost completely inhibited
IC50 [3]: 3.2 µM

Structure (SMILES): O=C(Nc1cccc(C(F)(F)F)c1)c1ccc2nc(N3C(=O)c4ccccc4C3=O)sc2c1 [Compound 2]
hERG (KV11.1) inhibition [2]: 10–20%
IC50 [3]: 3 µM

Structure (SMILES): O=C(Nc1cccc(C(F)(F)F)c1)c1ccc(CSc2nnnn2-c2ccccc2)cc1 [Compound 3]
hERG (KV11.1) inhibition [2]: 45%
IC50 [3]: 1.6 µM

Structure (SMILES): C[C@H](NC(=O)c1cc(C(F)(F)F)nn1C)c1nc(-c2ccnc(C(F)(F)F)c2)no1 [Compound 4]
IC50 [4]: 0.04 µM
anticonvulsant effects [5]: demonstrated anticonvulsant effects
displacement at GABAA Cl– channels [6]: 74%

Structure (SMILES): O=C(N[C@@H]1CCc2cc(Cl)ccc21)c1ccc(S(=O)(=O)N2CCCC2)s1 [Compound 5]
IC50 [7]: < 1 µM

Structure (SMILES): COc1ccc(Cl)cc1NC(=O)CN1CCN(S(=O)(=O)N2CCC(C)CC2)CC1 [Compound 6]
frequency of spontaneous calcium oscillations [8]: inhibited the frequency of spontaneous calcium oscillations
IC50 [9]: > 10 µM
IC50 [10]: 1.7 µM

Structure (SMILES): Cc1ccc2cccc(S(=O)(=O)N3CC(c4nc(-c5ccc(F)cc5)no4)C3)c2n1 [Compound 7]
IC50 [11]: 0.32 µM
IC50 [12]: 0.67 µM
metabolism in mouse liver microsomes [13]: rapidly metabolized

Next, values leading:

SLACK Imax [1]: 50%
IC50 [1]: > 10 µM
Structure (SMILES): C[C@@H](c1ccccc1)N(C)c1nc2c(c(=O)n(Cc3ccccc3)c(=O)n2C)n1C [Analog 66]

SLACK Imax [1]: 100%
IC50 [1]: 1.4 µM
Structure (SMILES): CCN(Cc1ccccc1)c1nc2c(c(=O)n(Cc3ccccc3)c(=O)n2C)n1C [Analog 67]

SLACK Imax [1]: 100%
IC50 [1]: 1.3 µM
Structure (SMILES): CCCN(Cc1ccccc1)c1nc2c(c(=O)n(Cc3ccccc3)c(=O)n2C)n1C [Analog 68]

SLACK Imax [1]: 100%
IC50 [1]: 3.4 µM
Structure (SMILES): CC(C)N(Cc1ccccc1)c1nc2c(c(=O)n(Cc3ccccc3)c(=O)n2C)n1C [Analog 69]

SLACK Imax [1]: 100%
IC50 [1]: 1.4 µM
Structure (SMILES): Cn1c(N(Cc2ccccc2)Cc2ccccc2)nc2c1c(=O)n(Cc1ccccc1)c(=O)n2C [Analog 72]

SLACK activity (in words) ([1]; APC, WT SLACK): inactive
Structure (SMILES): Cn1c(N2Cc3ccccc3C2)nc2c1c(=O)n(Cc1ccccc1)c(=O)n2C [Analog 74]

SLACK Imax [1]: 100%
IC50 [1]: 2.8 µM
Structure (SMILES): Cn1c(N2CCc3ccccc3C2)nc2c1c(=O)n(Cc1ccccc1)c(=O)n2C [Analog 75]

SLACK Imax [1]: 103%
IC50 [1]: 7 µM
Structure (SMILES): Cn1c(CCc2ccccc2)nc2c1c(=O)n(Cc1ccccc1)c(=O)n2C [Analog 77]
